From ChEMBL document CHEMBL1240366, “Blockade of X4-tropic HIV-1 cellular entry by GSK812397, a potent noncompetitive CXCR4 receptor antagonist” (Antimicrob Agents Chemother, 2010)

Assays:
[1] = Oral bioavailability in rat; type: ADME, organism-based; conditions: in vivo
[2] = Half life in iv dosed rat; type: ADME, organism-based; conditions: in vivo

SMILES: CCCN(CCC)CCCCN(C)Cc1ccc(CN(Cc2ncc[nH]2)Cc2nccn2C)cc1
- bioavailability [1]: 21%
- half-life [2]: 99 h
